Drawing on US9469645B2, “Compounds and compositions for the treatment of parasitic diseases” (Novartis AG, priority 2009, dated 2016), this text covers EC50 for 21 compounds.

The test system of assay [1] is 3D7 P. falciparum strain. Briefly: parasite proliferation assay in infected red blood cells (SYBR Green I). It is filed as cell-based, Plasmodium falciparum. As to conditions: Plasmodium falciparum, 3D7, Erythrocyte, 3D7 strain; read-out: EC50 3D7 strain. The source says:
(§1) Compounds of the invention can be assayed to measure their capacity to inhibit proliferation of parasitemia in infected red blood cells. The proliferation is quantified by the addition of SYBR Green I (INVITROGEN)® dye which has a high affinity for double stranded DNA.
The following assay illustrates the invention without in any way limiting the scope of the invention. This parasite proliferation assay measures the increase in parasite DNA content using a DNA intercalating dye, SYBR Green®.
3D7 P. falciparum strain is grown in complete culturing media until parasitemia reaches 3% to 8% with O+ human erythrocytes. 20 μl of screening media is dispensed into 384 well assay plates. […] 10 μl of lysis buffer (saponin, triton-X, EDTA) containing a 10× solution of SYBR Green I® in RPMI media is dispensed into the plates. The plates are lidded and kept at room temperature overnight for the lysis of the infected red blood cells.

Assay [2] deals with W2 strain. Briefly: parasite proliferation assay in infected red blood cells (SYBR Green I), W2 strain. Particulars: Erythrocyte. It is filed as cell-based.
Excerpt: as §1

A word on the EC50: it is the concentration at which the effect is half-maximal. `CC(C)(N)C(=O)N1CCn2c(nc(-c3cccc(F)c3)c2Nc2ccc(Cl)c(F)c2)C1` [Compound 229]: the values for the EC50 in assay [1] and in assay [2] were 10 nM and 7 nM, respectively.

As for `CCCCCc1ccc(-c2nc3n(c2Nc2ccc(F)cc2)CCN(C(=O)C(C)(C)N)C3)cc1` [Compound 14], the results for the EC50 in assay [1] and in assay [2] were 3590 nM and 5870 nM, respectively.

As for `Cc1ccc(Nc2c(-c3ccc(F)cc3)nc3n2CCN(C(=O)Cc2ccncn2)C3)cc1` [Compound 206], the EC50 in assay [1] stood at 1200 nM; in assay [2], 1170 nM.

In the case of `CC(C)(C)CC(C)(C)Nc1c(C(c2ccccc2)c2ccccc2)nc2ccccn12` [Compound 739], the EC50 worked out at 768 nM in assay [1] and 881 nM in assay [2] (Plasmodium falciparum).

As for `Cc1ccc(Nc2c(-c3ccc(F)cc3)nc3n2CCN(C(=O)[C@H]2CCCO2)C3)cc1` [Compound 199], the EC50 was determined as 240 nM in assay [1] and 157 nM in assay [2].

For `Cc1ccc(CC(=O)N2CCn3c(nc(-c4ccc(F)c(F)c4)c3Nc3ccc(C)cc3)C2)cc1` [Compound 390], the EC50 in assay [1] stood at 30 nM; in assay [2], 28 nM.

On to `Fc1ccc(Nc2c(-c3ccc(F)cc3)nc3n2CCN(Cc2ccccc2)C3)cc1` [Compound 48], for which the EC50 worked out at 1840 nM in assay [1] and 1750 nM in assay [2].

As for `CCCNC(=O)C[C@H](N)C(=O)N1CCn2c(nc(-c3ccc(F)cc3)c2Nc2ccc(C)cc2)C1` [Compound 189], the EC50 in assay [1] worked out at 370 nM; in assay [2], 392 nM.

Regarding `Cc1cc(Nc2c(-c3ccc(F)cc3)nc3n2C(C)(C)C(=O)NC3)ccc1Cl` [Compound 619], the EC50 was 570 nM in assay [1] and 713 nM in assay [2] (Plasmodium falciparum).

Turning to `C[C@@H](N)C(=O)N1CCn2c(nc(-c3ccc(F)cc3)c2Nc2ccc(Cl)c(F)c2)C1` [Compound 327], the EC50 came out at 30 nM in assay [1] and 21 nM in assay [2].

In the case of `COc1ccc(C(O)C(=O)N2CCn3c(nc(-c4ccc(F)cc4)c3Nc3ccc(C)cc3)C2)cc1` (stereo not drawn) [Compound 122], the figures for the EC50 in assay [1] and in assay [2] were 180 nM and 154 nM, respectively.

Consider `CC(C)(C)CC(C)(C)Nc1c(-c2ccccc2OC(F)F)nc2ccccn12` [Compound 742], for which the EC50 in assay [1] is 6430 nM; in assay [2] (Plasmodium falciparum), 11600 nM.

As for `Cc1ccc(Nc2c(-c3ccc(F)cc3)nc3n2CCN(C(=O)[C@@H](N)c2ccccc2)C3)cc1` [Compound 98], the EC50 turned out to be 10 nM in assay [1] and 8 nM in assay [2].

As for `Cc1ccc(Nc2c(-c3ccc(F)cc3)nc3n2CCN(CCN2CCn4c(nc(-c5ccc(F)cc5)c4Nc4ccc(C)cc4)C2)C3)cc1` [Compound 155], the EC50 was determined as 2140 nM in assay [1] and 491 nM in assay [2].

As for `CCCC(=O)OC(C(=O)N1CCn2c(nc(-c3ccc(F)cc3)c2Nc2ccc(C)cc2)C1)c1ccccc1` (stereo not drawn) [Compound 269], the EC50 in assay [1] stood at 10 nM; in assay [2], 6 nM.

In the case of `Cc1ccc(Nc2c(-c3ccc(F)cc3)nc3n2CCN(C(=O)[C@@H](N)CO)C3)cc1` [Compound 163], the EC50 was determined as 20 nM in assay [1] and 26 nM in assay [2].

For the compound `Cc1ccc(Nc2c(-c3ccc(F)cc3)nc3n2CCN(C(=O)[C@@H](N)Cc2ccc(CN)cc2)C3)cc1` [Compound 213], the figures for the EC50 in assay [1] and in assay [2] were 3800 nM and 4820 nM, respectively.

Consider `Fc1ccc(-c2nc3n(c2Nc2ccc(Cl)cc2)CCNC3)cc1` [Example 262, N-(4-chlorophenyl)-2-(4-fluorophenyl)-5,6,7,8-tetrahydroimidazo[1,2-a]pyrazin-3-mine], for which the EC50 in assay [1] was determined as 240 nM; in assay [2], 267 nM.

On to `CC(C)(C)OC(=O)N[C@@H](CC(=O)O)C(=O)N1CCn2c(nc(-c3cccc(F)c3)c2Nc2ccc(Cl)c(F)c2)C1` [Compound 240], for which the EC50 in assay [1] stood at 10500 nM; in assay [2], 6990 nM.

For `N[C@@H](CC1CCC1)C(=O)N1CCn2c(nc(-c3ccc(F)cc3)c2Nc2ccc(Cl)c(F)c2)C1` [Compound 325], the concentration giving a half-maximal response (EC50) in assay [1] is 30 nM; in assay [2] it was 29 nM.

On to `Cc1ccc(Nc2c(-c3ccc(F)cc3)nc3n2CCN(Cc2ccc(S(C)(=O)=O)cc2)C3)cc1` [Compound 179], for which the EC50 turned out to be 4790 nM in assay [1] and 1070 nM in assay [2].
